# In patent publication US12201610B2, “Compositions comprising aticaprant” (Janssen Pharmaceuticals, Inc., priority 2022, dated 2025):
# Columns and labels:
# [1] = Body weight by treatment group (Example 6); type: in vivo, human
# Method: Treatment with aticaprant as described herein has several advantages over the treatments in the art. […] As used herein, the term “weight gain” refers to an increase in the weight of patient, relative to the weight of the patient before taking aticaprant or the weight of the patient that is assessed at the time of the initial administration of aticaprant. In certain embodiments, the patient may actually see a decrease in overall weight, relative to the weight of the patient before taking aticaprant.
# At the lead-in baseline timepoint, the mean weight for subjects in the placebo group was 76.17 kg compared to 78.66 in the aticaprant group. After 6 weeks in the double-blind treatment phase, the mean weight in the placebo group was 75.75 kg compared to 78.57 kg in the aticaprant group. […] This is unexpected because other adjunctive treatments for MDD result in a mean weight increase. See, Thase M, et al. J Clin Psych. 2015: 76(9), 1224-1231; Thase, J Clin Psych. 2015, 76(9): 1232-1240; El Khalili, Int J Neuropsychopharmacol. 2010, 13, 917-932; Marcus, J. Clin. Psychopharmacol. […] Nashville, Tenn, ACNP, 2008; Earley, American College of Neuropsychopharmacology, 2007, Annual Meeting Abstracts (Boca Raton, Fla, Dec. 9-13, 2007). Nashville, TN, ACNP, 2007). See, Table 45.
# subjects with MDD = assay: ASEX sexual functioning score (Example 6); type: in vivo, human
# Source text: As used herein, the term “decrease in sexual functioning” refers to reducing or lessening of one or more components of the human sex drive, i.e., sexual functioning. In some embodiments, the sexual functioning comprises one or more of sexual drive, sexual arousal, vaginal lubrication, erection, orgasm achievement, or orgasm satisfaction. In other embodiments, the sexual functioning comprises sexual drive. In further embodiments, the sexual functioning comprises vaginal lubrication satisfaction. In further embodiments, the sexual functioning comprises orgasm achievement. In yet other embodiments, the sexual functioning comprises orgasm satisfaction. Desirably, the patient's sexual functioning is assessed at the time of initial administration of aticaprant. Thus, the patient's sexual functioning while taking aticaprant can be compared to the patient's sexual functioning before administration of aticaprant. Sexual functioning may be assessed by using standard scales and techniques such as the Arizona Sexual Experience Scale (ASEX). The ASEX is used to investigate whether aticaprant has a further positive or negative effect on sexual function. The ASEX is 5 item rating scale administered to patients that quantifies sexual drive, sexual arousal, vaginal lubrication or penile erection, ability to reach orgasm and satisfaction. Scores range from 5 to 30, and two different versions of the scale are available (males and females).
# Patients had their sexual functioning measured using a standard, well accepted rating scale: ASEX. See, Table 48.
structure (smiles),measurement,setting,value
"Cc1cc(C)cc(C2CCCN2Cc2ccc(Oc3ccc(C(N)=O)cc3F)cc2)c1 (stereo not drawn) [aticaprant, 3-fluoro-4-4-2-(3,5-dimethylphenyl)pyrrolidin-1-yl-methylphenoxybenzamide]","Mean weight, mean (SE)","[1]; Lead-in Baseline, n = 85",78.66 (1.65) kg
same,"Mean weight, mean (SE)","[1]; Screening, n = 85",78.42 (1.65) kg
same,"Mean weight, mean (SE)","[1]; Withdrawal Baseline, n = 85",78.57 (1.71) kg
same,mean weight,[1]; after 6 weeks in the double-blind treatment phase,78.57 kg
same,mean weight,[1]; lead-in baseline timepoint,78.66 kg
same,Weight Absolute Change (Withdrawal—Lead-in),[1]; n = 85,-0.09 kg
same,Weight Relative % Change,[1]; n = 85,−0.11%
same,ASEX score,"subjects with MDD; Baseline, n = 85",21.26
same,ASEX score,"subjects with MDD; Endpoint, n = 85",19.79
same,ASEX score Relative % Change,subjects with MDD; n = 85,−6.91%
same,ASEX score Absolute Change,"subjects with MDD; n = 85, lower score indicates improvement",−1.47
same,ASEX total score mean change from treatment baseline (SD),"subjects with MDD; to week 6, lower score indicates improvement",−1.5 (4.02) points
